Data as given in patent publication US20150175712A1, “ANTAGONIST TO AN ENZYME AND/OR A METABOLITE OF THE KYNURENINE PATHWAY” (ImmuSmol SAS, priority 2012, published 2015).
Entries after “also recorded” stand apart in the source; their conditions may differ.

Assays:
[1] = system: CD4 positive helper T cells; experiment: Proliferation of helper T cells activated with CD3/CD28 antibodies (CFSE); format: cell-based; details: 3HAA 100 μM, 96 hours
Description: FIG. 21: Suppression of anti-proliferative properties of 3HAA on helper T cells by a 3HAA monoclonal antibody (1B10). CD4 positive T cells were activated by anti CD3/CD28 antibodies cocktail and incubated for 96 hours with either vehicle, 3HAA at 100 μM or 3HAA (100 μM)+IgG anti 3HAA.
We evaluated the ability of the selected anti 3HAA antibody to block the suppressive effect of 3HAA on helper T cells activated with CD3/CD28 cocktail antibodies. Helper T cells were incubated with or without 3HAA and stained with CFSE (carboxyfluorescein succinimidyl ester). […] The selected anti 3HAA antibody is therefore able to inhibit, in vitro, the suppressive effect of 3HAA, e.g. on helper T cells.

tumor = details: Muller et al 2005; cited from earlier work
IDO = IDO (Homo sapiens, UniProt P14902); details: Pilotte et al 2012; cited from earlier work
Sequence of IDO (P14902 whole entry, species assumed): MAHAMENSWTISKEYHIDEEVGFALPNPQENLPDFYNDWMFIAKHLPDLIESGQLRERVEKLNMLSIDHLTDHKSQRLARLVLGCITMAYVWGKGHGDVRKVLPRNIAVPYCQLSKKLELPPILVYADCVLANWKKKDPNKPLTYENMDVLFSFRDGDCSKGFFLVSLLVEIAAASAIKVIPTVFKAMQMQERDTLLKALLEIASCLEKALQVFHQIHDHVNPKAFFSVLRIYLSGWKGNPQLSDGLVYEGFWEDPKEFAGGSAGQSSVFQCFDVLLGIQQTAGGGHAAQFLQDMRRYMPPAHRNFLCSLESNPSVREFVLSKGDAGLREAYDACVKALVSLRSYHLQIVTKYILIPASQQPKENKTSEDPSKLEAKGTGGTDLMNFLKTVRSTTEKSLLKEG

[2] = Pilotte et al 2012; cited from earlier work
mastocytoma = details: Pilotte et al 2012; cited from earlier work

## Nc1c(O)cccc1C(=O)O [Clone 3HAA, 3-Hydroxy Anthranilic Acid]
[1]
  Effect of 3HAA on proliferation of activated helper T cells: blocked cell proliferation; also recorded: anergy of T cells was induced

## Cn1cc(C[C@H](N)C(=O)O)c2ccccc21 [Clone 1MT, 1-Methyl Tryptophan]
tumor
  anti-tumor benefits when administered alone: weak

## Fc1ccc2c(/C=C/c3nnn[nH]3)c[nH]c2c1 [LM-10, trans-6-Fluoro-3-[2-(1H-tetrazol-5-yl)vinyl]-1H-indole]
IDO
  IDO inhibition: does not inhibit
[2]
  solubility compared to 1MT: higher
mastocytoma
  benefits in experimental model of mastocytoma: benefits
